Test results published in PubChem BioAssay (NCI).
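Cells were grown in 96-well plates and exposed to each compound for 48 hours at five concentrations; endpoints were interpolated linearly between bracketing concentrations, or set to the highest concentration if not reached. The concentration for full growth arrest is given as TGI.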

How the values were obtained:
Assay in all cases: NCI-60 cell line screen, 48 h
PC-3 prostate = tested on: PC-3 prostate
SF-268 CNS = tested on: SF-268 CNS
SK-OV-3 ovarian = tested on: SK-OV-3 ovarian
SN12C renal = tested on: SN12C renal
M14 melanoma = tested on: M14 melanoma
HS 578T breast = tested on: HS 578T breast
RXF 393 renal = tested on: RXF 393 renal
DU-145 prostate = tested on: DU-145 prostate
KM12 colon = tested on: KM12 colon
A549 NSCLC = tested on: A549 NSCLC
EKVX NSCLC = tested on: EKVX NSCLC
LOX IMVI melanoma = tested on: LOX IMVI melanoma
UACC-62 melanoma = tested on: UACC-62 melanoma
HL-60(TB) leukemia = tested on: HL-60(TB) leukemia
NCI-H460 lung = tested on: NCI-H460 lung
SW-620 colon = tested on: SW-620 colon
SK-MEL-5 melanoma = tested on: SK-MEL-5 melanoma
MOLT-4 leukemia = tested on: MOLT-4 leukemia
OVCAR-4 ovarian = tested on: OVCAR-4 ovarian
SK-MEL-2 melanoma = tested on: SK-MEL-2 melanoma
NCI-H522 lung = tested on: NCI-H522 lung
NCI/ADR-RES ovarian = tested on: NCI/ADR-RES ovarian
TK-10 renal = tested on: TK-10 renal
OVCAR-8 ovarian = tested on: OVCAR-8 ovarian
A498 renal = tested on: A498 renal
IGROV1 ovarian = tested on: IGROV1 ovarian
MDA-MB-231 breast = tested on: MDA-MB-231 breast
HCT-15 colon = tested on: HCT-15 colon
BT-549 breast = tested on: BT-549 breast
COLO 205 colon = tested on: COLO 205 colon
U251 CNS = tested on: U251 CNS
NCI-H23 lung = tested on: NCI-H23 lung
MALME-3M melanoma = tested on: MALME-3M melanoma
OVCAR-5 ovarian = tested on: OVCAR-5 ovarian
786-0 renal = tested on: 786-0 renal
CCRF-CEM leukemia = tested on: CCRF-CEM leukemia
SK-MEL-28 melanoma = tested on: SK-MEL-28 melanoma
HOP-62 NSCLC = tested on: HOP-62 NSCLC
SNB-75 CNS = tested on: SNB-75 CNS
CAKI-1 renal = tested on: CAKI-1 renal
MDA-N = tested on: MDA-N
HCT-116 colon = tested on: HCT-116 colon
MDA-MB-435 = tested on: MDA-MB-435
HT29 colon = tested on: HT29 colon
ACHN renal = tested on: ACHN renal
SF-295 CNS = tested on: SF-295 CNS
SF-539 CNS = tested on: SF-539 CNS
MCF7 breast = tested on: MCF7 breast
NCI-H226 lung = tested on: NCI-H226 lung
SNB-19 CNS = tested on: SNB-19 CNS
T-47D breast = tested on: T-47D breast
UO-31 renal = tested on: UO-31 renal
UACC-257 melanoma = tested on: UACC-257 melanoma

`C/C=C1\CC(C(=O)OCC)CCCCCCCCCCC1=O` (stereo not drawn) was tested, and the TGI (PC-3 prostate) was > 100 µM, the TGI (SF-268 CNS) was > 100 µM and the TGI (SK-OV-3 ovarian) was > 100 µM. The TGI (SN12C renal) was > 100 µM, the TGI (M14 melanoma) was > 100 µM and the TGI (HS 578T breast) was > 100 µM. The TGI (RXF 393 renal) was > 100 µM, the TGI (DU-145 prostate) was > 100 µM and the TGI (KM12 colon) was > 100 µM. The TGI (A549 NSCLC) was > 100 µM, the TGI (EKVX NSCLC) was > 100 µM and the TGI (LOX IMVI melanoma) was 80.8 µM. The TGI (UACC-62 melanoma) was > 100 µM, the TGI (HL-60(TB) leukemia) was > 100 µM and the TGI (NCI-H460 lung) was > 100 µM. For the same compound, the TGI (SW-620 colon) was > 100 µM, the TGI (SK-MEL-5 melanoma) was > 100 µM and the TGI (MOLT-4 leukemia) was > 100 µM. The TGI (OVCAR-4 ovarian) was > 100 µM, the TGI (SK-MEL-2 melanoma) was > 100 µM and the TGI (NCI-H522 lung) was 81.5 µM. The TGI (NCI/ADR-RES ovarian) was > 100 µM, the TGI (TK-10 renal) was > 100 µM and the TGI (OVCAR-8 ovarian) was > 100 µM. The TGI (A498 renal) was > 100 µM, the TGI (IGROV1 ovarian) was > 100 µM and the TGI (MDA-MB-231 breast) was > 100 µM. The TGI (HCT-15 colon) was > 100 µM, the TGI (BT-549 breast) was > 100 µM and the TGI (COLO 205 colon) was > 100 µM. The TGI (U251 CNS) was > 100 µM, the TGI (NCI-H23 lung) was > 100 µM and the TGI (MALME-3M melanoma) was > 100 µM. For the same compound, the TGI (OVCAR-5 ovarian) was > 100 µM, the TGI (786-0 renal) was > 100 µM and the TGI (CCRF-CEM leukemia) was > 100 µM. The TGI (SK-MEL-28 melanoma) was > 100 µM, the TGI (HOP-62 NSCLC) was > 100 µM and the TGI (SNB-75 CNS) was > 100 µM. For the same compound, the TGI (CAKI-1 renal) was > 100 µM, the TGI (MDA-N) was > 100 µM and the TGI (HCT-116 colon) was > 100 µM. For the same compound, the TGI (MDA-MB-435) was 38 µM, the TGI (HT29 colon) was > 100 µM and the TGI (ACHN renal) was > 100 µM. For the same compound, the TGI (SF-295 CNS) was > 100 µM, the TGI (SF-539 CNS) was > 100 µM and the TGI (MCF7 breast) was > 100 µM. For the same compound, the TGI (NCI-H226 lung) was > 100 µM, the TGI (SNB-19 CNS) was > 100 µM and the TGI (T-47D breast) was > 100 µM. The TGI (UO-31 renal) was > 100 µM and the TGI (UACC-257 melanoma) was > 100 µM.
